Article PMC10784468 (Nature Communications, 2024)
Where two headings read alike, the source gives them in different places. Positions of bridges follow the written chain, without caps; N, C: chain ends. Residues, ends and D or L forms follow the SMILES beside them. *: point of attachment. X1 = O=C(O)c1ccc(-c2c3nc(c(-c4ccc(C(=O)O)cc4)c4ccc([nH]4)c(-c4ccc(C(=O)*)cc4)c4nc(c(-c5ccc(C(=O)O)cc5)c5ccc2[nH]5)C=C4)C=C3)cc1; X2 = O=C(O)C/C(=C/C(=O)*)C(=O)O

What was measured:
[1] = Hydrolysis of the peptide-porphyrin conjugates at pH 7.4 and 6.5 (dialysis, HPLC); format: physicochemical; conditions: 37 °C, dialysis MWCO 1000 Da, released CAA by HPLC, mean of n = 3
Description: In vitro hydrolysis analysis of the peptide-porphyrin conjugates was studied in pH values of 7.4 and 6.5 solutions. 20 mg of peptide-porphyrin conjugate was dissolved in 2 mL pH 7.4 buffer solution, which was then transferred into a dialysis bag (MWCO: 1000 Da) and immersed in 25 mL of different pH buffer solutions at 37 °C with continuous shaking respectively. At fixed time intervals (20 min, 40 min, 1 h, 2 h and 4 h), […] chromatography (HPLC, WATERS Alliance HPLC e2489), and an equal volume of fresh buffer solution was replaced to the system. In order to determine the CAA concentration according to the peak area of the CAA, a standard curve of the CAA was plotted, with the peak area as a function of the concentration. […]

[2] = test system: GPX4 protein; experiment: Microscale Thermophoresis (MST) ligand binding; conditions: labelled GPX4
Description: Initially, GPX4 was labeled using Protein Labeling Kit RED-NHS according to the manufacturer’s instructions to investigate the binding affinity of Gi-F-CAA, Gi-F and NGi-F-CAA with GPX4 protein. Afterward, the labelled GPX4 protein was incubated with series of Gi-F-CAA, Gi-F and NGi-F-CAA concentration gradients. Finally, the prepared samples were loaded into silica capillaries and measured with Monolish NT.115. Apparent Kd represented the affinity of assemblies rather than a single molecule. Bovine serum albumin (BSA) was used as control for calculating the apparent binding affinity between Gi-F (nanoparticle) to GPX4 protein. Briefly, as the diameter of nanoparticle is proportional to the molecular weight, according to the reported bovine serum albumin (BSA) protein size and molecular weight (7.2 nm, 66.43 KDa), the molecular weight of Gi-F nanoparticle with an average 78 nm size can be calculated to be […]. The monomer amount Gi-F nanoparticle was calculated as […].

[3] = test system: HUVEC cells; format: cell-based; conditions: HUVEC cells, pH=7.4
Description: Supplementary Fig. 27. Viability of HUVEC cells after treated with Gi -F (pH=7.4) and Gi-F-CAA (pH=7.4) at different
concentrations for 48 h (n=3 experimental repeats). Experiment was independently repeated three times with
(1 picture or pasted object on this page, not shown here)

[4] = test system: EJ cells; experiment: Intracellular GSH content detection; format: cell-based
Description: Initially, EJ cells (5 × 10^5) were cultured in 6-well plate with a CO2 incubator overnight at 37 °C. […] Next, EJ cells were collected and washed with PBS for 3 times. Afterwards, the cell lysates were collected by centrifugation at 8000 g for 10 min at 4 °C after lysed by freeze-thaw treatment. Finally, the GSH contents were measured with a GSH Assay Kit based on the manufacturer’s instructions.

[5] = test system: EJ cells; experiment: Intracellular LPO content (MDA kit); format: cell-based
Description: Initially, EJ cells (5 × 10^5) were cultured in 6-well plate with a CO2 incubator overnight at 37 °C. […] Next, EJ cells were collected and washed with PBS for 3 times. Afterwards, the cell lysates were collected by centrifugation at 8000 g for 10 min at 4 °C after lysed by freeze-thaw treatment. Finally, the LPO contents were measured by thiobarbituric acid (TBA) reaction with a Malondialdehyde (MDA) Assay Kit based on the manufacturer’s instructions.

With `CC(C)C[C@H](NC(=O)c1ccc(-c2c3nc(c(-c4ccc(C(=O)O)cc4)c4ccc([nH]4)c(-c4ccc(C(=O)O)cc4)c4nc(c(-c5ccc(C(=O)O)cc5)c5ccc2[nH]5)C=C4)C=C3)cc1)C(=O)N[C@@H](CCCCNC(=O)/C=C(/CC(=O)O)C(=O)O)C(=O)N[C@@H](CC(C)C)C(=O)N[C@@H](CCCCN)C(=O)N[C@@H](CC(C)C)C(=O)N[C@@H](CCCCNC(=O)/C=C(/CC(=O)O)C(=O)O)C(=O)NCC(=O)N[C@@H](C)C(=O)N[C@H]1CSSC[C@@H](C(=O)N2CCC[C@H]2C(=O)N[C@H](C(=O)O)C(C)C)NC(=O)[C@@H]2CCCN2C(=O)[C@H](Cc2ccc(O)cc2)NC(=O)[C@H](CC(C)C)NC(=O)[C@@H]2CCCN2C(=O)[C@H](CC(C)C)NC(=O)[C@H](Cc2c[nH]c3ccccc23)NC(=O)[C@H](CC(N)=O)NC1=O` [Gi-F-CAA] (X1-LK(X2)LKLK(X2)GACNWLPLYPCPV-OH; disulfide 9-17; C-terminus assumed) as the compound, how does the “Hydrolysis of CAA (%)” value ([1]; pH 6.5 buffer, 0 min) read?
Its value is 0%.

What about the “Hydrolysis of CAA (%)” value ([1]; pH 6.5 buffer, 20 min) of the same compound?
The value was 17.6%.

And the “Hydrolysis of CAA (%)” value ([1]; pH 6.5 buffer, 40 min)?
The value was 43.7%.

What about the “Hydrolysis of CAA (%)” value ([1]; pH 6.5 buffer, 60 min) of the same compound?
The value was 53.6%.

What about the “Hydrolysis of CAA (%)” value ([1]; pH 6.5 buffer, 120 min) of the same compound?
Its value is 56.9%.

And the “Hydrolysis of CAA (%)” value ([1]; pH 6.5 buffer, 240 min)?
The value was 57.5%.

What about the “Hydrolysis of CAA (%)” value ([1]; pH 7.4 buffer, 0 min) of the same compound?
Its value is 0%.

And the “Hydrolysis of CAA (%)” value ([1]; pH 7.4 buffer, 20 min)?
The value was 3.1%.

And the “Hydrolysis of CAA (%)” value ([1]; pH 7.4 buffer, 40 min)?
The value was 10.9%.

What about the “Hydrolysis of CAA (%)” value ([1]; pH 7.4 buffer, 60 min) of the same compound?
Its value is 12.1%.

And the “Hydrolysis of CAA (%)” value ([1]; pH 7.4 buffer, 120 min)?
Its value is 13.1%.

What about the “Hydrolysis of CAA (%)” value ([1]; pH 7.4 buffer, 240 min) of the same compound?
Its value is 14.3%.

What about the “Fnorm (‰), MST original data” value ([2]; ligand concentration 3.05176e-8 (μM)) of the same compound?
The value was 933.824 ‰.

And the “Fnorm (‰), MST original data” value ([2]; ligand concentration 6.10352e-8 (μM))?
Its value is 930.278 ‰.

What about the “Fnorm (‰), MST original data” value ([2]; ligand concentration 1.2207e-7 (μM)) of the same compound?
Its value is 933.334 ‰.

What about the “Fnorm (‰), MST original data” value ([2]; ligand concentration 2.44141e-7 (μM)) of the same compound?
The value was 933.054 ‰.

What about the “Fnorm (‰), MST original data” value ([2]; ligand concentration 4.88281e-7 (μM)) of the same compound?
Its value is 933.313 ‰.

What about the “Fnorm (‰), MST original data” value ([2]; ligand concentration 9.76563e-7 (μM)) of the same compound?
The value was 936.876 ‰.

What about the “Fnorm (‰), MST original data” value ([2]; ligand concentration 1.95313e-6 (μM)) of the same compound?
The value was 940.785 ‰.

And the “Fnorm (‰), MST original data” value ([2]; ligand concentration 3.90625e-6 (μM))?
The value was 940.492 ‰.

And the “Fnorm (‰), MST original data” value ([2]; ligand concentration 7.8125e-6 (μM))?
The value was 946.829 ‰.

And the “Fnorm (‰), MST original data” value ([2]; ligand concentration 1.5625e-5 (μM))?
Its value is 943.797 ‰.

And the “Fnorm (‰), MST original data” value ([2]; ligand concentration 3.125e-5 (μM))?
The value was 948.084 ‰.

What about the “Fnorm (‰), MST original data” value ([2]; ligand concentration 6.25e-5 (μM)) of the same compound?
Its value is 945.991 ‰.

And the “Fnorm (‰), MST original data” value ([2]; ligand concentration 0.000125 (μM))?
Its value is 949.08 ‰.

What about the “Fnorm (‰), MST original data” value ([2]; ligand concentration 0.00025 (μM)) of the same compound?
The value was 946.188 ‰.

And the “Fnorm (‰), MST original data” value ([2]; ligand concentration 0.0005 (μM))?
The value was 949.615 ‰.

And the “Fnorm (‰), MST original data” value ([2]; ligand concentration 0.001 (μM))?
The value was 948.046 ‰.

What about the “Cell viability of HUVEC” value ([3]; log concentration (μM) 0, replicate 1) of the same compound?
The value was 101.3%.

And the “Cell viability of HUVEC” value ([3]; log concentration (μM) 0, replicate 2)?
Its value is 99.35%.

And the “Cell viability of HUVEC” value ([3]; log concentration (μM) 0, replicate 3)?
Its value is 93.55%.

And the “Cell viability of HUVEC” value ([3]; log concentration (μM) 0.30103, replicate 1)?
Its value is 97.11%.

What about the “Cell viability of HUVEC” value ([3]; log concentration (μM) 0.30103, replicate 2) of the same compound?
The value was 93.48%.

What about the “Cell viability of HUVEC” value ([3]; log concentration (μM) 0.30103, replicate 3) of the same compound?
Its value is 94.74%.

And the “Cell viability of HUVEC” value ([3]; log concentration (μM) 0.60206, replicate 1)?
The value was 97.32%.

And the “Cell viability of HUVEC” value ([3]; log concentration (μM) 0.60206, replicate 2)?
The value was 86.5%.

And the “Cell viability of HUVEC” value ([3]; log concentration (μM) 0.60206, replicate 3)?
Its value is 95.44%.

What about the “Cell viability of HUVEC” value ([3]; log concentration (μM) 0.90309, replicate 1) of the same compound?
The value was 84.68%.

What about the “Cell viability of HUVEC” value ([3]; log concentration (μM) 0.90309, replicate 2) of the same compound?
The value was 94.46%.

What about the “Cell viability of HUVEC” value ([3]; log concentration (μM) 0.90309, replicate 3) of the same compound?
Its value is 84.96%.

What about the “Cell viability of HUVEC” value ([3]; log concentration (μM) 1.20412, replicate 1) of the same compound?
Its value is 84.75%.

And the “Cell viability of HUVEC” value ([3]; log concentration (μM) 1.20412, replicate 2)?
The value was 89.22%.

And the “Cell viability of HUVEC” value ([3]; log concentration (μM) 1.20412, replicate 3)?
Its value is 82.31%.

And the “Cell viability of HUVEC” value ([3]; log concentration (μM) 1.50515, replicate 1)?
Its value is 77.42%.

And the “Cell viability of HUVEC” value ([3]; log concentration (μM) 1.50515, replicate 2)?
Its value is 83.56%.

What about the “Cell viability of HUVEC” value ([3]; log concentration (μM) 1.50515, replicate 3) of the same compound?
Its value is 82.86%.

And the “Cell viability of HUVEC” value ([3]; log concentration (μM) 1.80618, replicate 1)?
Its value is 75.32%.

And the “Cell viability of HUVEC” value ([3]; log concentration (μM) 1.80618, replicate 2)?
Its value is 80.77%.

What about the “Cell viability of HUVEC” value ([3]; log concentration (μM) 1.80618, replicate 3) of the same compound?
The value was 73.08%.

What about the “Cell viability of HUVEC” value ([3]; log concentration (μM) 2.10721, replicate 1) of the same compound?
Its value is 65.68%.

What about the “Cell viability of HUVEC” value ([3]; log concentration (μM) 2.10721, replicate 2) of the same compound?
Its value is 64.77%.

And the “Cell viability of HUVEC” value ([3]; log concentration (μM) 2.10721, replicate 3)?
The value was 61.91%.

What about the “Cell viability of HUVEC” value ([3]; log concentration (μM) 2.40824, replicate 1) of the same compound?
The value was 56.53%.

What about the “Cell viability of HUVEC” value ([3]; log concentration (μM) 2.40824, replicate 2) of the same compound?
Its value is 48.01%.

And the “Cell viability of HUVEC” value ([3]; log concentration (μM) 2.40824, replicate 3)?
Its value is 52.83%.

What about the “intracellular GSH levels” value ([4]; EJ cells, pH 6.5, 40 μM, 8 h) of the same compound?
Its value is “substantial reduction of GSH levels”.

And the “Relative GSH levels” value ([4]; pH=6.5, replicate #1)?
The value was 0.188.

And the “Relative GSH levels” value ([4]; pH=6.5, replicate #2)?
The value was 0.178.

What about the “Relative GSH levels” value ([4]; pH=6.5, replicate #3) of the same compound?
The value was 0.129.

And the “Relative GSH levels” value ([4]; pH=7.4, replicate #1)?
Its value is 0.657.

What about the “Relative GSH levels” value ([4]; pH=7.4, replicate #2) of the same compound?
The value was 0.628.

And the “Relative GSH levels” value ([4]; pH=7.4, replicate #3)?
The value was 0.54.

What about the “Relative MDA levels” value ([5]; pH=6.5, replicate #1) of the same compound?
The value was 4.36.

And the “Relative MDA levels” value ([5]; pH=6.5, replicate #2)?
Its value is 4.44.

What about the “Relative MDA levels” value ([5]; pH=6.5, replicate #3) of the same compound?
The value was 4.68.

What about the “Relative MDA levels” value ([5]; pH=7.4, replicate #1) of the same compound?
Its value is 1.72.

And the “Relative MDA levels” value ([5]; pH=7.4, replicate #2)?
Its value is 1.84.

What about the “Relative MDA levels” value ([5]; pH=7.4, replicate #3) of the same compound?
The value was 2.24.
